Experimental data from ChEMBL document CHEMBL1131172 (J Med Chem, 1998).

Experiments:
[1] = target: T1, Bifunctional dihydrofolate reductase-thymidylate synthase (Toxoplasma gondii, UniProt Q07422)
T1 sequence (Q07422 whole entry): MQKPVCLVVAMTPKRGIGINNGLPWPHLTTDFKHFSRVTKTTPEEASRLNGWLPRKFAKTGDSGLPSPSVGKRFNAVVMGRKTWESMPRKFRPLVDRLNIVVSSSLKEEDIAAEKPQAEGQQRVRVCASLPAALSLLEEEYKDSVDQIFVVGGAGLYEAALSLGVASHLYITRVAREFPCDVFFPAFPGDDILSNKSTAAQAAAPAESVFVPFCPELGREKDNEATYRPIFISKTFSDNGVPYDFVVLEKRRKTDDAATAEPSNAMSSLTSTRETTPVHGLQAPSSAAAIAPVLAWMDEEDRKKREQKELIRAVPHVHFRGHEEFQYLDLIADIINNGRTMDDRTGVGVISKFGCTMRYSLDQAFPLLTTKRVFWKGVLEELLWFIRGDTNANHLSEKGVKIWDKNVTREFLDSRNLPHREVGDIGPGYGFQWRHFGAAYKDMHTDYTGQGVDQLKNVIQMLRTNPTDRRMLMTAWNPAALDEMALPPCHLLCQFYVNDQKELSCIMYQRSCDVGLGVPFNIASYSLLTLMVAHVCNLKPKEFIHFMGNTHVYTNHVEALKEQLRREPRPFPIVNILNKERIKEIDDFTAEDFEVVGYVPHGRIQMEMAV
Description: Inhibitory activity against dihydrofolate reductase (DHFR) from Toxoplasma gondii

Dihydrofolate reductase [2] = target: T2, Dihydrofolate reductase (Pneumocystis carinii, UniProt P16184)
T2 sequence (P16184 whole entry): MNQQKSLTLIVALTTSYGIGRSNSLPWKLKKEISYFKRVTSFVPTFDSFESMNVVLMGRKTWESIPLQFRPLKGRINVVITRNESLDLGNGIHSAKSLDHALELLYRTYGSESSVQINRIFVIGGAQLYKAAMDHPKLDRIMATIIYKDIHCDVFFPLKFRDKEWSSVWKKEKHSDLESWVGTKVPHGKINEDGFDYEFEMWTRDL
Description: Inhibitory activity against dihydrofolate reductase (DHFR) from Pneumocystis carinii

Dihydrofolate reductase [3] = target: T3, Dihydrofolate reductase (Rattus norvegicus, UniProt Q920D2)
T3 sequence (Q920D2 whole entry): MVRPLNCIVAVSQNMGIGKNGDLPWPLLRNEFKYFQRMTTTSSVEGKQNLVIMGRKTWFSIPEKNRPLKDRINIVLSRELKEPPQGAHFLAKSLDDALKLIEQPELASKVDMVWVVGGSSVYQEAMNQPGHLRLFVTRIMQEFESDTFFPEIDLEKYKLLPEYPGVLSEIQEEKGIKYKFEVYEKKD
Description: Inhibitory activity against dihydrofolate reductase (DHFR) from rat liver

786-0 [4] = test: inhibition of the growth of renal cancer(786-0) cell line; assay type: functional; conditions: Homo sapiens
786-0 [5] = test: Inhibition of the growth of renal cancer(786-0) cell line at 0.01 uM; assay type: functional; conditions: Homo sapiens
A549 [6] = test: inhibition of the growth of non-small-cell lung cancer (A549/ATCC) cell line; assay type: functional; conditions: Homo sapiens
A549 [7] = test: Inhibition of the growth of non-small-cell lung cancer (A549/ATCC) cell line at 0.01 uM; assay type: functional; conditions: Homo sapiens
CAKI-1 [8] = test: inhibition of the growth of renal cancer(CAKI-1) cell line; assay type: functional; conditions: Homo sapiens
CAKI-1 [9] = test: Inhibition of the growth of renal cancer(CAKI-1) cell line at 0.01 uM; assay type: functional; conditions: Homo sapiens
DU-145 [10] = test: Inhibition of the growth of prostate cancer(DU-145) cell line at 0.01 uM; assay type: functional; conditions: Homo sapiens
DU-145 [11] = test: inhibition of the growth of prostate cancer(DU-145) cell line; assay type: functional; conditions: Homo sapiens
HCT-15 [12] = test: Inhibition of the growth of colon cancer(HCT-15) cell line at 0.01 uM; assay type: functional; conditions: Homo sapiens
HCT-15 [13] = test: inhibition of the growth of colon cancer(HCT-15) cell line; assay type: functional; conditions: Homo sapiens
HCT-116 [14] = test: inhibition of the growth of colon cancer(HCT116) cell line; assay type: functional; conditions: Homo sapiens
HCT-116 [15] = test: Inhibition of the growth of colon cancer(HCT116) cell line at 0.01 uM; assay type: functional; conditions: Homo sapiens
IGROV-1 [16] = test: inhibition of the growth of ovarian cancer(IGROVI) cell line; assay type: functional; conditions: Homo sapiens
KM12 [17] = test: inhibition of the growth of colon cancer(KM-12) cell line; assay type: functional; conditions: Homo sapiens
KM12 [18] = test: Inhibition of the growth of colon cancer(KM-12) cell line at 0.01 uM; assay type: functional; conditions: Homo sapiens
M14 [19] = test: Inhibition of the growth of melanoma cancer (M14) cell line at 0.01 uM; assay type: functional; conditions: Homo sapiens
MOLT-4 [20] = test: Inhibition of the growth of leukemia (MOLT-4) cell line; assay type: functional; conditions: Homo sapiens
NCI/ADR-RES [21] = test: inhibition of the growth of breast cancer (MCF7/ADR-RES) cell line; assay type: functional; conditions: Homo sapiens
NCI/ADR-RES [22] = test: Inhibition of the growth of breast cancer (MCF7/ADR-RES) cell line at 0.01 uM; assay type: functional; conditions: Homo sapiens
MCF7 [23] = test: Inhibition of the growth of breast cancer (MCF-7) cell line at 0.01 uM; assay type: functional; conditions: Homo sapiens
M14 [24] = test: inhibition of the growth of melanoma cancer (M14) cell line; assay type: functional; conditions: Homo sapiens
MDA-N [25] = test: inhibition of the growth of breast cancer(MDA-N) cell line; assay type: functional; conditions: Homo sapiens
MDA-N [26] = test: Inhibition of the growth of breast cancer(MDA-N) cell line at 0.01 uM; assay type: functional; conditions: Homo sapiens
MDA-MB-435 [27] = test: Inhibition of the growth of breast cancer (MDA-MB-435) cell line at 0.01 uM; assay type: functional; conditions: Homo sapiens
MDA-MB-435 [28] = test: inhibition of the growth of breast cancer (MDA-MB-435) cell line; assay type: functional; conditions: Homo sapiens
MCF7 [29] = test: inhibition of the growth of breast cancer (MCF-7) cell line; assay type: functional; conditions: Homo sapiens
NCI-H460 [30] = test: inhibition of the growth of non-small-cell lung cancer (NCI-H460) cell line; assay type: functional; conditions: Homo sapiens
NCI-H522 [31] = test: inhibition of the growth of non-small-cell lung cancer (NCI-H522) cell line; assay type: functional; conditions: Homo sapiens
NCI-H522 [32] = test: Inhibition of the growth of non-small-cell lung cancer (NCI-H522) cell line at 0.01 uM; assay type: functional; conditions: Homo sapiens
NCI-H322M [33] = test: inhibition of the growth of non-small-cell lung cancer (NCI-H322M) cell line; assay type: functional; conditions: Homo sapiens
NCI-H322M [34] = test: Inhibition of the growth of non-small-cell lung cancer (NCI-H322M) cell line at 0.01 uM; assay type: functional; conditions: Homo sapiens
NCI-H23 [35] = test: Inhibition of the growth of non-small-cell lung cancer (NCI-H23) cell line; assay type: functional; conditions: Homo sapiens
OVCAR-8 [36] = test: inhibition of the growth of ovarian cancer(OVCAR-8) cell line; assay type: functional; conditions: Homo sapiens
NCI-H460 [37] = test: Inhibition of the growth of non-small-cell lung cancer (NCI-H460) cell line at 0.01 uM; assay type: functional; conditions: Homo sapiens
NCI-H23 [38] = test: Inhibition of the growth of non-small-cell lung cancer (NCI-H23) cell line at 0.01 uM; assay type: functional; conditions: Homo sapiens
RPMI-8226 [39] = test: Inhibition of the growth of leukemia (RPMI-8226) cell line at 0.01 uM; assay type: functional; conditions: Homo sapiens
RPMI-8226 [40] = test: Inhibition of the growth of leukemia (RPMI-8226) cell line; assay type: functional; conditions: Homo sapiens
SF-268 [41] = test: Inhibition of the growth of CNS cancer(SF-268) cell line at 0.01 uM; assay type: functional; conditions: Homo sapiens
SF-268 [42] = test: inhibition of the growth of CNS cancer(SF-268) cell line; assay type: functional; conditions: Homo sapiens
SF-295 [43] = test: inhibition of the growth of CNS cancer(SF-295) cell line; assay type: functional; conditions: Homo sapiens
SF-295 [44] = test: Inhibition of the growth of CNS cancer(SF-295) cell line at 0.01 uM; assay type: functional; conditions: Homo sapiens
SF-539 [45] = test: Inhibition of the growth of CNS cancer(SF-539) cell line at 0.01 uM; assay type: functional; conditions: Homo sapiens
SNB-19 [46] = test: inhibition of the growth of CNS cancer(SNB-19) cell line; assay type: functional; conditions: Homo sapiens
SNB-19 [47] = test: Inhibition of the growth of CNS cancer(SNB-19) cell line at 0.01 uM; assay type: functional; conditions: Homo sapiens
SF-539 [48] = test: inhibition of the growth of CNS cancer(SF-539) cell line; assay type: functional; conditions: Homo sapiens
SR [49] = test: Inhibition of the growth of leukemia(SR) cell line; assay type: functional; conditions: Homo sapiens
SR [50] = test: Inhibition of the growth of leukemia(SR) cell line at 0.01 uM; assay type: functional; conditions: Homo sapiens
SK-MEL-5 [51] = test: inhibition of the growth of melanoma cancer (SK-MEL-5) cell line; assay type: functional; conditions: Homo sapiens
SK-MEL-5 [52] = test: Inhibition of the growth of melanoma cancer (SK-MEL-5) cell line at 0.01 uM; assay type: functional; conditions: Homo sapiens
UO-31 [53] = test: inhibition of the growth of renal cancer(UO-31) cell line; assay type: functional; conditions: Homo sapiens
UO-31 [54] = test: Inhibition of the growth of renal cancer(UO-31) cell line at 0.01 uM; assay type: functional; conditions: Homo sapiens
IGROV-1 [55] = test: Inhibition of the growth of ovarian cancer(IGROVI) cell line at 0.01 uM; assay type: functional; conditions: Homo sapiens
MOLT-4 [56] = test: Inhibition of the growth of leukemia (MOLT-4) cell line at 0.01 uM; assay type: functional; conditions: Homo sapiens
OVCAR-8 [57] = test: Inhibition of the growth of ovarian cancer(OVCAR-8) cell line at 0.01 uM; assay type: functional; conditions: Homo sapiens

COc1ccc(Nc2ccc3nc(N)nc(N)c3n2)cc1OC
IC50 [1]: 680 nM
IC50 (Dihydrofolate reductase [2]): 40400 nM
IC50 (Dihydrofolate reductase [3]): 1100 nM

COc1ccc(OC)c(N(C)c2ccc3nc(N)nc(N)c3n2)c1
GI50 (786-0 [4]): < 10 nM
inhibition at 0.01 µM (786-0 [5]): 55%
GI50 (A549 [6]): < 10 nM
inhibition at 0.01 µM (A549 [7]): 72%
GI50 (CAKI-1 [8]): < 10 nM
inhibition at 0.01 µM (CAKI-1 [9]): 70%
inhibition at 0.01 µM (DU-145 [10]): 57%
GI50 (DU-145 [11]): < 10 nM
inhibition at 0.01 µM (HCT-15 [12]): 70%
GI50 (HCT-15 [13]): < 10 nM
GI50 (HCT-116 [14]): < 10 nM
inhibition at 0.01 µM (HCT-116 [15]): 83%
GI50 (IGROV-1 [16]): < 10 nM
GI50 (KM12 [17]): < 10 nM
inhibition at 0.01 µM (KM12 [18]): 55%
inhibition at 0.01 µM (M14 [19]): 61%
GI50 (MOLT-4 [20]): < 10 nM
GI50 (NCI/ADR-RES [21]): < 10 nM
inhibition at 0.01 µM (NCI/ADR-RES [22]): 82%
inhibition at 0.01 µM (MCF7 [23]): 58%
GI50 (M14 [24]): < 10 nM
GI50 (MDA-N [25]): < 10 nM
inhibition at 0.01 µM (MDA-N [26]): 59%
inhibition at 0.01 µM (MDA-MB-435 [27]): 70%
GI50 (MDA-MB-435 [28]): < 10 nM
GI50 (MCF7 [29]): < 10 nM
GI50 (NCI-H460 [30]): < 10 nM
GI50 (NCI-H522 [31]): < 10 nM
inhibition at 0.01 µM (NCI-H522 [32]): 67%
GI50 (NCI-H322M [33]): < 10 nM
inhibition at 0.01 µM (NCI-H322M [34]): 58%
GI50 (NCI-H23 [35]): < 10 nM
GI50 (OVCAR-8 [36]): < 10 nM
inhibition at 0.01 µM (NCI-H460 [37]): 82%
inhibition at 0.01 µM (NCI-H23 [38]): 78%
inhibition at 0.01 µM (RPMI-8226 [39]): 68%
GI50 (RPMI-8226 [40]): < 10 nM
inhibition at 0.01 µM (SF-268 [41]): 57%
GI50 (SF-268 [42]): < 10 nM
GI50 (SF-295 [43]): < 10 nM
inhibition at 0.01 µM (SF-295 [44]): 69%
inhibition at 0.01 µM (SF-539 [45]): 65%
GI50 (SNB-19 [46]): < 10 nM
inhibition at 0.01 µM (SNB-19 [47]): 73%
GI50 (SF-539 [48]): < 10 nM
GI50 (SR [49]): < 10 nM
inhibition at 0.01 µM (SR [50]): 68%
GI50 (SK-MEL-5 [51]): < 10 nM
inhibition at 0.01 µM (SK-MEL-5 [52]): 76%
GI50 (UO-31 [53]): < 10 nM
inhibition at 0.01 µM (UO-31 [54]): 100%
inhibition at 0.01 µM (IGROV-1 [55]): 66%
inhibition at 0.01 µM (MOLT-4 [56]): 54%
inhibition at 0.01 µM (OVCAR-8 [57]): 75%
IC50 [1]: 41 nM
IC50 (Dihydrofolate reductase [2]): 34 nM
IC50 (Dihydrofolate reductase [3]): 4.2 nM
